Reference: patent US10273267B2, “Beta-hairpin peptidomimetics as selective elastase inhibitors” (POLYPHOR AG, priority 2013, dated 2019)
pIC50: −log10 of the molar value. *1 amine or outer side, *2 acyl side, *3 side chain or, on linkers, in order; H or OH if unused. Where a SMILES comes first, the peptide text is derived from it. [ ]: non-standard residue; d: D form. Oic = O=C(O)[C@@H]1C[C@@H]2CCCC[C@@H]2N1; X1 = NCCCC[C@@H](CCC(=O)[*:2])N[*:1]; Gly(octyl) = CCCCCCCC[C@H](N)C(=O)O; hTyr = N[C@@H](CCc1ccc(O)cc1)C(=O)O; Aze = O=C(O)[C@@H]1CCN1; Nlys = NCCCCNCC(=O)O

Assays:
Format in all cases: biochemical
[1] = target: T1, human neutrophil elastase (Homo sapiens, UniProt P08246); experiment: Inhibition of human neutrophil elastase (hydrolysis of MeOSuc-AAPV-pNA); conditions: substrate MeOSuc-AAPV-pNA 0.3 mM, enzyme 10 nM, 37° C., pH 8; read-out: Human neutrophil elastase (hNE) IC50
T1 construct: purchased Serva Electrophoresis, Germany
T1 sequence (P08246 30-267): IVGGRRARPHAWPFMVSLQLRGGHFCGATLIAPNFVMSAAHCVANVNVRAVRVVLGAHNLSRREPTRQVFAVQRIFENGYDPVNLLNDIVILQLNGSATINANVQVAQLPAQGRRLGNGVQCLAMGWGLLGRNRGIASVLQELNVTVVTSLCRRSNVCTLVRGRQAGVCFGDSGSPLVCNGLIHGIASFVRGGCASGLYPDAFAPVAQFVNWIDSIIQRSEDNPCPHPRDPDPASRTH
Method in brief: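 MeOSuc-AAPV-pNA (0.3 mM) hydrolysis by 10 nM enzyme at 37° C with serially diluted peptides (1% DMSO) in 50 mM Tris pH 8, 300 mM NaCl, 0.01% Tween20. pNA release read at 405 nm over 30 minutes; IC50 from 4-parameter Hill fit.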

[2] = target: T2, porcine pancreatic elastase (Sus scrofa, UniProt P00772); experiment: Inhibition of porcine pancreatic elastase (hydrolysis of MeOSuc-AAA-pNA); conditions: for hNE/PPE selectivity: ratio of PPE IC50 to hNE IC50; for pIC50: substrate MeOSuc-AAA-pNA 1 mM, enzyme 15 nM, 37° C., pH8, read-out: Porcine pancreatic elastase (PPE) IC50
T2 construct: purchased Sigma, USA
T2 sequence (P00772 27-266): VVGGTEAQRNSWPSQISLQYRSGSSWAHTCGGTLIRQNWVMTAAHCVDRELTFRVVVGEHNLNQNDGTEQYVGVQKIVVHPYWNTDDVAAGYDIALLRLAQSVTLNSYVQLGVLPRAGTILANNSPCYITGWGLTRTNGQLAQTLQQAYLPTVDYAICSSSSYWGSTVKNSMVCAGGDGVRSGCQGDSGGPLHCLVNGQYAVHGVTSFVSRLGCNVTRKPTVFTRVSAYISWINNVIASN
Method in brief: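 Elastase (15 nM) incubated at 37 °C with 1 mM MeOSuc-AAA-pNA and serially diluted peptides (0.5% DMSO) in 50 mM Tris pH 8, 100 mM NaCl, 0.01% Tween20. pNA release read at 405 nm over 30 min; IC50 from 4-parameter Hill fit.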

human proteinase 3 = target: T3, human proteinase 3 (Homo sapiens, UniProt P24158); experiment: Inhibition of human proteinase 3 (substrate Boc-Ala-Ala-Nva-SBzl); conditions: for hNE/hPr3 selectivity: ratio of hPr3 IC50 to hNE IC50; for pIC50: substrate Boc-Ala-Ala-Nva-SBzl 1 mM, enzyme 10 nM, 37° C., pH7.4, read-out: Human proteinase 3 (hPr3) IC50
T3 construct: purchased Elastin Products Company, USA
T3 sequence (P24158 28-248): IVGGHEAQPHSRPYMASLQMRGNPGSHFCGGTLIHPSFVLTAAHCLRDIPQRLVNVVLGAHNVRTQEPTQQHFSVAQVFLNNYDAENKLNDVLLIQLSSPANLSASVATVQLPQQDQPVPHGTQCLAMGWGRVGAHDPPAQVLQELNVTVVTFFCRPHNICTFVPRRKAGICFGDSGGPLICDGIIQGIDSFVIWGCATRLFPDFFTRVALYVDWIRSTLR
Method in brief: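 Enzyme at 10 nM incubated at 37°C with 1 mM thiobenzyl ester substrate, 250 μM 4,4′-dithiodipyridine and serial peptide dilutions (0.5% DMSO) in Tris pH 7.4, 150 mM NaCl, 0.01% Tween20. Absorbance at 340 nm followed over 30 min; IC50 from 4-parameter Hill fit.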

Compound	pIC50 [1]	hNE/PPE selectivity [2]	pIC50 [2]	hNE/hPr3 selectivity (human proteinase 3)	pIC50 (human proteinase 3)
CCCCCCCC[C@@H]1NC(=O)[C@@H]2CCCN2C(=O)[C@H]2CCCN2C(=O)[C@H]([C@@H](C)O)NC(=O)[C@H](CCCCN)NC(=O)[C@H](CCC(N)=O)NC(=O)[C@@H]2CCCN2C(=O)CN(CCCCN)C(=O)[C@H]([C@@H](C)CC)NC(=O)[C@H](CO)NC(=O)[C@H](C)NC(=O)[C@H]([C@@H](C)O)NC(=O)[C@H](CCC(=O)O)NC1=O [Example 33, Cyclo(-OctGly-Glu-Thr-Ala-Ser-Ile-Nlys-Pro-Gln-Lys-Thr-^DPro-Pro-)] (cyclo([Gly(octyl)]ETASI[Nlys]PQKT[dP]P))	8.15	1186	5.08	871	5.21
CCCCCCCC[C@@H]1NC(=O)[C@@H]2C[C@@H]3CCCC[C@@H]3N2C(=O)[C@H]2CCCN2C(=O)[C@H]([C@@H](C)O)NC(=O)[C@H](CCCCN)NC(=O)[C@H](CCC(N)=O)NC(=O)[C@@H]2CCCN2C(=O)[C@@H]2CCCN2C(=O)[C@H]([C@@H](C)CC)NC(=O)[C@H](CO)NC(=O)[C@H](C)NC(=O)[C@H]([C@@H](C)O)NC(=O)[C@H](CCC(=O)O)NC1=O [Example 6, Cyclo(-OctGly-Glu-Thr-Ala-Ser-Ile-Pro-Pro-Gln-Lys-Thr-^DPro-Oic-)] (cyclo([Gly(octyl)]ETASIPPQKT[dP][Oic]))	7.92	321	5.41	372	5.35
CCCCCCCC[C@@H]1NC(=O)[C@H](CCCCN)NC(=O)[C@@H](CO)NC(=O)[C@H]([C@@H](C)O)NC(=O)[C@H](CCCCN)NC(=O)[C@H](CCC(N)=O)NC(=O)[C@@H]2CCCN2C(=O)[C@@H]2CCCN2C(=O)[C@H]([C@@H](C)CC)NC(=O)[C@H](CO)NC(=O)[C@H](C)NC(=O)[C@H]([C@@H](C)O)NC(=O)[C@H](CCC(=O)O)NC1=O [Example 32, Cyclo(-OctGly-Glu-Thr-Ala-Ser-Ile-Pro-Pro-GI n-Lys-Thr-^DSer-Lys-)] (cyclo([Gly(octyl)]ETASIPPQKT[dS]K))	7.65	4036	4.05	>4484	< 4.00
CCCCCCCC[C@@H]1NC(=O)[C@@H]2CCCN2C(=O)[C@H]2CCCN2C(=O)[C@H]([C@@H](C)O)NC(=O)[C@H](CCCCN)NC(=O)[C@H](CCC(N)=O)NC(=O)[C@@H]2CCN2C(=O)[C@@H]2CCCN2C(=O)[C@H]([C@@H](C)CC)NC(=O)[C@H](CO)NC(=O)[C@H](C)NC(=O)[C@H]([C@@H](C)O)NC(=O)[C@H](CCC(=O)O)NC1=O [Example 46, Cyclo(-OctGly-Glu-Thr-Ala-Ser-Ile-Pro-Azt-Gln-Lys-Thr-^DPro-Pro-)] (cyclo([Gly(octyl)]ETASIP[Aze]QKT[dP]P))	8.15	268	5.72	310	5.66
CC[C@H](C)[C@@H]1NC(=O)[C@H](CO)NC(=O)[C@H](C)NC(=O)[C@H]([C@@H](C)O)NC(=O)[C@H](C(C)C)NC(=O)[C@H](CCCNC(=N)N)NC(=O)[C@@H]2CCCN2C(=O)[C@H]2CCCN2C(=O)[C@H]([C@@H](C)O)NC(=O)[C@H](CCCCN)NC(=O)[C@H](CCC(N)=O)NC(=O)[C@@H]2C[C@@H]3CCCC[C@@H]3N2C(=O)[C@@H]2CCCN2C1=O [Example 41] (cyclo(RVTASIP[Oic]QKT[dP]P))	8.10	>12658	< 4.00	>12658	< 4.00
CC[C@H](C)[C@@H]1NC(=O)[C@H](CO)NC(=O)[C@H](C)NC(=O)[C@H]([C@@H](C)O)NC(=O)[C@H](CCc2ccc(O)cc2)NC(=O)[C@H](CCCNC(=N)N)NC(=O)[C@H](CCC(=O)O)NC(=O)[C@H]2CCCN2C(=O)[C@H]([C@@H](C)O)NC(=O)[C@H](CCCCN)NC(=O)[C@H](CCC(N)=O)NC(=O)[C@@H]2C[C@@H]3CCCC[C@@H]3N2C(=O)[C@@H]2CCCN2C1=O [Example 43, Cyclo(-Arg-hTyr-Thr-Ala-Ser-Ile-Pro-Oic-Gln-Lys-Thr-^DPro-Glu-)] (cyclo(R[hTyr]TASIP[Oic]QKT[dP]E))	8.57	>237037	< 4.00	>237037	< 4.00
CCCCCCCC[C@@H]1NC(=O)[C@@H]2CCCN2C(=O)[C@H]2CCCN2C(=O)[C@H]([C@@H](C)O)NC(=O)CC[C@H](CCCCN)NC(=O)[C@H](CCC(N)=O)NC(=O)[C@@H]2CCCN2C(=O)[C@@H]2CCCN2C(=O)[C@H]([C@@H](C)CC)NC(=O)[C@H](CO)NC(=O)[C@H](C)NC(=O)[C@H]([C@@H](C)O)NC(=O)[C@H](CCC(=O)O)NC1=O [Example 38, Cyclo(-OctGly-Glu-Thr-Ala-Ser-Ile-Pro-Pro-Gln-[H-γ^4-DiHLys-OH]-Thr-^DPro-Pro-)] (cyclo([Gly(octyl)]ETASIPPQ[X1]T[dP]P))	7.76	535	5.04	535	5.04
